Assays:
[1] = tested on: MTB strains (Beijing family, wild-type parent and rpoB H445D rifampicin-resistant isolate); format: cell-based, Mycobacterium tuberculosis
[2] = tested on: MTB strains (Haarlem family, wild-type parent and rpoB S450L rifampicin-resistant isolate); format: cell-based, Mycobacterium tuberculosis

Row | SMILES | drug susceptibility [1] | drug susceptibility [2] | MIC [1] [mg/L]
1 | CC[C@@H](CO)NCCN[C@@H](CC)CO [ethambutol] | susceptible | susceptible | –
2 | NNC(=O)c1ccncc1 [isoniazid] | susceptible | susceptible | < 0.2
3 | NC(=O)c1cnccn1 [pyrazinamide] | susceptible | susceptible | –

— patent US20140349320A1, “Using Adaptive Immunity to Detect Drug Resistance” (The Trustees of the University of Pennsylvania, priority 2011, published 2014)
